Columns and labels:
Assay type in all cases: cell-based
BRAF V600E = target: T1, BRAF V600E (Homo sapiens, UniProt P15056, V600E); assay: BRAF HiBiT degradation assay, C-terminal HiBiT-tagged BRAF V600E A375 cells (clone 1F10), Nano-Glo HiBiT Lytic assay; conditions: for Dmax: A-375
T1 construct: endogenous C-terminal HiBiT fusion tag on BRAF V600E allele; endogenous in cells; host or cells: A375 clone 1F10 (CRISPR-Cas9 knock-in of the HiBiT tag; parental A375 from ATCC)
Summary of the method: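 Endogenous BRAF V600E-HiBiT A375 (1F10), 10,000 cells/well, 24 h preculture; cpd 11-pt, 1 μM–0.01 nM half-log, n=2, 0.2% DMSO; HiBiT lytic detection 10 min RT; DC50 = fitted conc at Y=50; Obs. Dmax vs DMSO.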

BRAF G466V = target: T2, BRAF G466V (Homo sapiens, UniProt P15056, G466V); assay: BRAF HiBiT degradation assay, C-terminal HiBiT-tagged BRAF G466V overexpressed in HCT-116 BRAF−/− cells (clone 8), Nano-Glo HiBiT Lytic assay
T2 construct: Horizon Discovery (HCT-116 BRAF−/− cells); host or cells: HCT-116 BRAF−/− cells, clone 8, lentiviral transduction
Summary of the method: (§1)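 Luminescence from the lytic HiBiT reagent, read after 10 min at room temperature, measured tagged BRAF remaining in lentivirally transduced HCT-116 BRAF−/− cells. Compounds were tested from 1 μM to 0.01 nM in half-log steps at 0.2% DMSO. DC50 values were fitted at 50% remaining.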

BRAF G469A = target: T3, BRAF G469A (Homo sapiens, UniProt P15056, G469A); assay: BRAF HiBiT degradation assay, C-terminal HiBiT-tagged BRAF G469A overexpressed in HCT-116 BRAF−/− cells (clone 34), Nano-Glo HiBiT Lytic assay
T3 construct: Horizon Discovery (HCT-116 BRAF−/− cells); host or cells: HCT-116 BRAF−/− cells, clone 34, lentiviral transduction
Summary of the method: as §1

BRAF D594G = target: T4, BRAF D594G (Homo sapiens, UniProt P15056, D594G); assay: BRAF HiBiT degradation assay, C-terminal HiBiT-tagged BRAF D594G overexpressed in HCT-116 BRAF−/− cells (clone 63), Nano-Glo HiBiT Lytic assay
T4 construct: Horizon Discovery (HCT-116 BRAF−/− cells); host or cells: HCT-116 BRAF−/− cells, clone 63, lentiviral transduction
Summary of the method: as §1

[1] = A375 (BRAF V600E, Class 1), DC50 at 50% degradation
[2] = A375 (BRAF V600E, Class 1), observed Dmax, % protein degraded relative to DMSO control
[3] = BRAF G466V (Class 3), HCT-116 BRAF−/− cells, DC50 at 50% degradation
[4] = BRAF G466V (Class 3), HCT-116 BRAF−/− cells, observed Dmax relative to DMSO control
[5] = BRAF G469A (Class 2), HCT-116 BRAF−/− cells, DC50 at 50% degradation
[6] = BRAF G469A (Class 2), HCT-116 BRAF−/− cells, observed Dmax relative to DMSO control
[7] = BRAF D594G (Class 3), HCT-116 BRAF−/− cells, DC50 at 50% degradation
[8] = BRAF D594G (Class 3), HCT-116 BRAF−/− cells, observed Dmax relative to DMSO control
[9] = A375 (BRAF V600E), DC50 at 50%: fitted conc. at Y=50
[10] = A375 (BRAF V600E), percentage protein degraded at maximal compound effect relative to DMSO
[11] = BRAF G466V, DC50 at 50%: fitted conc. at Y=50
[12] = HCT-116, BRAF G466V, percentage protein degraded at maximal compound effect relative to DMSO
[13] = Class 2, BRAF G469A, DC50 at 50%: fitted conc. at Y=50
[14] = HCT-116, Class 2, BRAF G469A, percentage protein degraded at maximal compound effect relative to DMSO
[15] = BRAF D594G, DC50 at 50%: fitted conc. at Y=50
[16] = HCT-116, BRAF D594G, percentage protein degraded at maximal compound effect relative to DMSO

T4 sequence (P15056 whole entry D594G): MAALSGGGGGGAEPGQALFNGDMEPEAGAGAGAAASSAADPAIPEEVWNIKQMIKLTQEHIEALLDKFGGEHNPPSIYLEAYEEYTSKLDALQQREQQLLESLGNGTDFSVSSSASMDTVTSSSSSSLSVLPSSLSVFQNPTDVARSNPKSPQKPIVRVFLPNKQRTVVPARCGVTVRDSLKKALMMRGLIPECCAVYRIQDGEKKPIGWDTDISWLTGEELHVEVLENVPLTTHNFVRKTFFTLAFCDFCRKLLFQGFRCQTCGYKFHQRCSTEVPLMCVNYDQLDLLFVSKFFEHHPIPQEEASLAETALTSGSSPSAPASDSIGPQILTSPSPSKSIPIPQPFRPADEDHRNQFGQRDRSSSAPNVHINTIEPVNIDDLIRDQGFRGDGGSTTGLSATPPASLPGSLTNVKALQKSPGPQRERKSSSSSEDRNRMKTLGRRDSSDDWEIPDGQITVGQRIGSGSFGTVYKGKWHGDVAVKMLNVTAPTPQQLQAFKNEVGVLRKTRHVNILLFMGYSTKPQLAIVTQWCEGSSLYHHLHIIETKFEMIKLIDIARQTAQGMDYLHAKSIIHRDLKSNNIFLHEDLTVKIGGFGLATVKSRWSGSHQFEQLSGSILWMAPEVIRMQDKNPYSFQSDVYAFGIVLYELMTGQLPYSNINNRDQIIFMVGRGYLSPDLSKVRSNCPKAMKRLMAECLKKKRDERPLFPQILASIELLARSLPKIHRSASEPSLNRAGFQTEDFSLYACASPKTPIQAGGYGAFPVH
T3 sequence (P15056 whole entry G469A): as the sequence (P15056 whole entry D594G) above, with G469A, G594D counted along it
T2 sequence (P15056 whole entry G466V): as the sequence (P15056 whole entry D594G) above, with G466V, G594D counted along it
T1 sequence (P15056 whole entry V600E, the tested form may be a part): as the sequence (P15056 whole entry D594G) above, with G594D, V600E counted along it

| Compound | DC50 (BRAF V600E; [1]) [nM] | Dmax (BRAF V600E; [2]) [%] | DC50 (BRAF G466V; [3]) [nM] | Dmax (BRAF G466V; [4]) [%] | DC50 (BRAF G469A; [5]) [nM] | Dmax (BRAF G469A; [6]) [%] | DC50 (BRAF D594G; [7]) [nM] | Dmax (BRAF D594G; [8]) [%] | DC50 (BRAF V600E; [9]) [nM] | Dmax (BRAF V600E; [10]) [%] | DC50 (BRAF G466V; [11]) [nM] | Dmax (BRAF G466V; [12]) [%] | DC50 (BRAF G469A; [13]) [nM] | Dmax (BRAF G469A; [14]) [%] | DC50 (BRAF D594G; [15]) [nM] | Dmax (BRAF D594G; [16]) [%] |
| --- | --- | --- | --- | --- | --- | --- | --- | --- | --- | --- | --- | --- | --- | --- | --- | --- |
| O=C1CCC(c2ccc(N3CCC(CN4CCN(c5ccc(-n6cc(-c7cc(Cl)cc(NS(=O)(=O)N8CC(F)C8)c7F)c(-c7ccncc7)n6)cc5)CC4)CC3)nc2)C(=O)N1 (racemic) [Compound 332, Rac-N-{5-chloro-3-[1-(4-{4-[(1-{5-[(3R)-2,6-dioxopiperidin-3-yl]pyridin-2-yl}piperidin-4-yl)methyl]piperazin-1-yl}phenyl)-3-(pyridin-4-yl)-1H-pyrazol-4-yl]-2-fluorophenyl}-3-fluoroazetidine-1-sulfonamide] | < 10 | > 70 | < 10 | > 70 | < 10 | > 70 | < 10 | 30 to 70 |  |  |  |  |  |  |  |  |
| O=C1CCN(c2ccc(N3CCC(CN4CCN(c5ccc(-n6cc(-c7cc(Cl)cc(NS(=O)(=O)N8CC[C@@H](F)C8)c7F)c(-c7ccncc7)n6)cc5F)CC4)CC3)cc2)C(=O)N1 [Compound 365, (3R)—N-[5-chloro-3-(1-{4-[4-({1-[4-(2,4-dioxo-1,3-diazinan-1-yl)phenyl]piperidin-4-yl}methyl)piperazin-1-yl]-3-fluorophenyl}-3-(pyridin-4-yl)-1H-pyrazol-4-yl)-2-fluorophenyl]-3-fluoropyrrolidine-1-sulfonamide] | < 10 | > 70 | < 10 | 30 to 70 | > 500 | 30 to 70 | < 10 | 30 to 70 |  |  |  |  |  |  |  |  |
| O=C1CCN(c2ccc(N3CCC(CN4CCN(c5ccc(-n6cc(-c7cc(Cl)cc(NS(=O)(=O)N8CC[C@@H](F)C8)c7F)c(-c7ccncc7)n6)cc5)CC4)CC3)cc2)C(=O)N1 [Compound 292, (3R)—N-[5-chloro-3-(1-{4-[4-({1-[4-(2,4-dioxo-1,3-diazinan-1-yl)phenyl]piperidin-4-yl}methyl)piperazin-1-yl]phenyl}-3-(pyridin-4-yl)-1H-pyrazol-4-yl)-2-fluorophenyl]-3-fluoropyrrolidine-1-sulfonamide] | < 10 | > 70 | < 10 | 30 to 70 | 50 to 500 | 30 to 70 | < 10 | 30 to 70 |  |  |  |  |  |  |  |  |
| O=C1CC[C@H](c2ccc(N3CCC(CN4CCN(c5ccc(-n6cc(-c7cc(Cl)cc(NS(=O)(=O)N8CCCC8)c7F)c(-c7ccncc7)n6)nc5)CC4)CC3)cc2)C(=O)N1 [Compound 286, N-{5-chloro-3-[1-(5-{4-[(1-{4-[(3R)-2,6-dioxopiperidin-3-yl]phenyl}piperidin-4-yl)methyl]piperazin-1-yl}pyridin-2-yl)-3-(pyridin-4-yl)-1H-pyrazol-4-yl]-2-fluorophenyl}pyrrolidine-1-sulfonamide] | < 10 | > 70 | < 10 | > 70 | 10 to 50 | 30 to 70 | < 10 | > 70 |  |  |  |  |  |  |  |  |

Now from value to compound:

| DC50 (BRAF V600E; [1]) [nM] | Dmax (BRAF V600E; [2]) [%] | DC50 (BRAF G466V; [3]) [nM] | Dmax (BRAF G466V; [4]) [%] | DC50 (BRAF G469A; [5]) [nM] | Dmax (BRAF G469A; [6]) [%] | DC50 (BRAF D594G; [7]) [nM] | Dmax (BRAF D594G; [8]) [%] | DC50 (BRAF V600E; [9]) [nM] | Dmax (BRAF V600E; [10]) [%] | DC50 (BRAF G466V; [11]) [nM] | Dmax (BRAF G466V; [12]) [%] | DC50 (BRAF G469A; [13]) [nM] | Dmax (BRAF G469A; [14]) [%] | DC50 (BRAF D594G; [15]) [nM] | Dmax (BRAF D594G; [16]) [%] | Compound |
| --- | --- | --- | --- | --- | --- | --- | --- | --- | --- | --- | --- | --- | --- | --- | --- | --- |
|  |  |  |  |  |  |  |  | < 10 | 30 to 70 | > 500 | < 30 | > 500 | < 30 | > 500 | 30 to 70 | CCCS(=O)(=O)Nc1cccc(-c2nc(C(C)(C)C)sc2-c2ccnc(Nc3cnn(C4CCN(CC5CCN(c6ccc(C(=O)N[C@@H]7CCC(=O)NC7=O)nc6)CC5)CC4)c3)n2)c1F [Compound 67, 5-{4-[(4-{4-[(4-{2-tert-butyl-4-[2-fluoro-3-(propane-1-sulfonamido)phenyl]-1,3-thiazol-5-yl}pyrimidin-2-yl)amino]-1H-pyrazol-1-yl}piperidin-1-yl)methyl]piperidin-1-yl}-N-[(3R)-2,6-dioxopiperidin-3-yl]pyridine-2-carboxamide] |
|  |  |  |  |  |  |  |  | 10 to 50 | > 70 | 10 to 50 | 30 to 70 | > 500 | 30 to 70 | > 500 | 30 to 70 | CCCS(=O)(=O)Nc1cccc(-c2nc(C(C)(C)C)sc2-c2ccnc(Nc3ccc(N4CCN(CC5CCN(c6ccc([C@H]7CCC(=O)NC7=O)cc6)CC5)CC4)c(F)c3)n2)c1F [Compound 87, N-[3-(2-tert-butyl-5-{2-[(4-{4-[(1-{4-[(3R)-2,6-dioxopiperidin-3-yl]phenyl}piperidin-4-yl)methyl]piperazin-1-yl}-3-fluorophenyl)amino]pyrimidin-4-yl}-1,3-thiazol-4-yl)-2-fluorophenyl]propane-1-sulfonamide] |
|  |  |  |  |  |  |  |  | 50 to 500 | 30 to 70 | > 500 | < 30 | > 500 | < 30 | > 500 | < 30 | CCCS(=O)(=O)Nc1cccc(-c2nc(C(C)(C)C)sc2-c2ccnc(NCC3CCN(CC4CCN(c5ccc(C(=O)N[C@H]6CCC(=O)NC6=O)nc5)CC4)CC3)n2)c1F [Compound 147, 5-{4-[(4-{[(4-{2-tert-butyl-4-[2-fluoro-3-(propane-1-sulfonamido)phenyl]-1,3-thiazol-5-yl}pyrimidin-2-yl)amino]methyl}piperidin-1-yl)methyl]piperidin-1-yl}-N-[(3S)-2,6-dioxopiperidin-3-yl]pyridine-2-carboxamide] |
|  |  |  |  |  |  |  |  | < 10 | > 70 | 10 to 50 | > 70 | 50 to 500 | 30 to 70 | 10 to 50 | 30 to 70 | CCN(C)S(=O)(=O)Nc1cccc(-c2nc(C)sc2-c2ccnc(Nc3ccc(N4CCN(CC5CCN(c6ccc([C@H]7CCC(=O)NC7=O)cn6)CC5)CC4)cn3)n2)c1F [Compound 27, (3R)-3-{6-[4-({4-[6-({4-[4-(3-{[ethyl(methyl)sulfamoyl]amino}-2-fluorophenyl)-2-methyl-1,3-thiazol-5-yl]pyrimidin-2-yl}amino)pyridin-3-yl]piperazin-1-yl}methyl)piperidin-1-yl]pyridin-3-yl}piperidine-2,6-dione] |
|  |  |  |  |  |  |  |  | < 10 | > 70 | < 10 | 30 to 70 | > 500 | 30 to 70 | < 10 | 30 to 70 | CCN(C)S(=O)(=O)Nc1cccc(-c2nc(C3CCN(C(=O)C4CCN(C(=O)C5CCN(c6ccc(C7CCC(=O)NC7=O)cn6)CC5)CC4)CC3)sc2-c2ccnc(NC(C)C)n2)c1F (racemic) [Compound 183, Rac-(3S)-3-{6-[4-(4-{4-[4-(3-{[ethyl(methyl)sulfamoyl]amino}-2-fluorophenyl)-5-{2-[(propan-2-yl)amino]pyrimidin-4-yl}-1,3-thiazol-2-yl]piperidine-1-carbonyl}piperidine-1-carbonyl)piperidin-1-yl]pyridin-3-yl}piperidine-2,6-dione] |
|  |  |  |  |  |  |  |  | < 10 | > 70 | > 500 | 30 to 70 | < 10 | 30 to 70 | > 500 | 30 to 70 | CCCS(=O)(=O)Nc1cccc(-c2nc(C)sc2-c2ccnc(Nc3ccc(N4CCN(CC5CCN(c6ccc([C@@H]7CCC(=O)NC7=O)cc6)CC5)CC4)cn3)n2)c1F [Compound 61, N-[3-(5-{2-[(5-{4-[(1-{4-[(3S)-2,6-dioxopiperidin-3-yl]phenyl}piperidin-4-yl)methyl]piperazin-1-yl}pyridin-2-yl)amino]pyrimidin-4-yl}-2-methyl-1,3-thiazol-4-yl)-2-fluorophenyl]propane-1-sulfonamide] |

From patent publication US20260317324A1, “BIFUNCTIONAL COMPOUNDS FOR DEGRADING BRAF VIA UBIQUITIN PROTEOSOME PATHWAY” (Nurix Therapeutics, Inc., priority 2023, published 2026)
